According to PubChem BioAssay (NCI):
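Each compound was tested at five concentrations against cells in 96-well plates for 48 hours. At the TGI there is no net growth.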

What was measured:
Experiment in all cases: NCI anticancer screen, dose series, 48 h
786-0 renal = test system: 786-0 renal
A549 NSCLC = test system: A549 NSCLC
ACHN renal = test system: ACHN renal
COLO 205 colon = test system: COLO 205 colon
DU-145 prostate = test system: DU-145 prostate
EKVX NSCLC = test system: EKVX NSCLC
HCT-116 colon = test system: HCT-116 colon
HCT-15 colon = test system: HCT-15 colon
HOP-62 NSCLC = test system: HOP-62 NSCLC
HOP-92 NSCLC = test system: HOP-92 NSCLC
HS 578T breast = test system: HS 578T breast
HT29 colon = test system: HT29 colon
IGROV1 ovarian = test system: IGROV1 ovarian
LOX IMVI melanoma = test system: LOX IMVI melanoma
M14 melanoma = test system: M14 melanoma
MALME-3M melanoma = test system: MALME-3M melanoma
MDA-MB-231 breast = test system: MDA-MB-231 breast
MDA-N = test system: MDA-N
MOLT-4 leukemia = test system: MOLT-4 leukemia
NCI-H460 lung = test system: NCI-H460 lung
NCI-H522 lung = test system: NCI-H522 lung
NCI/ADR-RES ovarian = test system: NCI/ADR-RES ovarian
OVCAR-3 ovarian = test system: OVCAR-3 ovarian
OVCAR-8 ovarian = test system: OVCAR-8 ovarian
PC-3 prostate = test system: PC-3 prostate
SF-268 CNS = test system: SF-268 CNS
SF-295 CNS = test system: SF-295 CNS
SK-MEL-2 melanoma = test system: SK-MEL-2 melanoma
SK-MEL-5 melanoma = test system: SK-MEL-5 melanoma
SN12C renal = test system: SN12C renal
SNB-75 CNS = test system: SNB-75 CNS
SR leukemia = test system: SR leukemia
SW-620 colon = test system: SW-620 colon
T-47D breast = test system: T-47D breast
UACC-257 melanoma = test system: UACC-257 melanoma
UACC-62 melanoma = test system: UACC-62 melanoma
A498 renal = test system: A498 renal
BT-549 breast = test system: BT-549 breast
CAKI-1 renal = test system: CAKI-1 renal
CCRF-CEM leukemia = test system: CCRF-CEM leukemia
HCC-2998 colon = test system: HCC-2998 colon
HL-60(TB) leukemia = test system: HL-60(TB) leukemia
K-562 leukemia = test system: K-562 leukemia
KM12 colon = test system: KM12 colon
MCF7 breast = test system: MCF7 breast
MDA-MB-435 = test system: MDA-MB-435
NCI-H226 lung = test system: NCI-H226 lung
NCI-H23 lung = test system: NCI-H23 lung
OVCAR-4 ovarian = test system: OVCAR-4 ovarian
OVCAR-5 ovarian = test system: OVCAR-5 ovarian
RPMI-8226 leukemia = test system: RPMI-8226 leukemia
RXF 393 renal = test system: RXF 393 renal
SF-539 CNS = test system: SF-539 CNS
SK-MEL-28 melanoma = test system: SK-MEL-28 melanoma
SNB-19 CNS = test system: SNB-19 CNS
TK-10 renal = test system: TK-10 renal
U251 CNS = test system: U251 CNS
UO-31 renal = test system: UO-31 renal

CC(C)(C)[Si](C)(C)OCC1OC(n2cnc3c(N)ncnc32)C(O[Si](C)(C)C(C)(C)C)C1O[Si](C)(C)C(C)(C)C (stereo unspecified)
TGI (786-0 renal): 18.6 µM
TGI (A549 NSCLC): 48.5 µM
TGI (ACHN renal): 27.2 µM
TGI (COLO 205 colon): > 100 µM
TGI (DU-145 prostate): > 100 µM
TGI (EKVX NSCLC): 64.7 µM
TGI (HCT-116 colon): 22.4 µM
TGI (HCT-15 colon): > 100 µM
TGI (HOP-62 NSCLC): 46 µM
TGI (HOP-92 NSCLC): > 100 µM
TGI (HS 578T breast): 58.5 µM
TGI (HT29 colon): > 100 µM
TGI (IGROV1 ovarian): > 100 µM
TGI (LOX IMVI melanoma): 39.2 µM
TGI (M14 melanoma): 67.4 µM
TGI (MALME-3M melanoma): > 100 µM
TGI (MDA-MB-231 breast): 54.1 µM
TGI (MDA-N): > 100 µM
TGI (MOLT-4 leukemia): 12.8 µM
TGI (NCI-H460 lung): 27.3 µM
TGI (NCI-H522 lung): 21.3 µM
TGI (NCI/ADR-RES ovarian): > 100 µM
TGI (OVCAR-3 ovarian): 13.8 µM
TGI (OVCAR-8 ovarian): 42 µM
TGI (PC-3 prostate): 30 µM
TGI (SF-268 CNS): 56.5 µM
TGI (SF-295 CNS): 62.3 µM
TGI (SK-MEL-2 melanoma): 49.4 µM
TGI (SK-MEL-5 melanoma): 14.4 µM
TGI (SN12C renal): 34.9 µM
TGI (SNB-75 CNS): 27.6 µM
TGI (SR leukemia): 86.7 µM
TGI (SW-620 colon): > 100 µM
TGI (T-47D breast): 46.4 µM
TGI (UACC-257 melanoma): > 100 µM
TGI (UACC-62 melanoma): 51.6 µM

Cc1cn([C@@H]2C[C@H]2CO)c(=O)[nH]c1=O
TGI (786-0 renal): > 100 µM
TGI (A498 renal): > 100 µM
TGI (A549 NSCLC): > 100 µM
TGI (ACHN renal): > 100 µM
TGI (BT-549 breast): > 100 µM
TGI (CAKI-1 renal): > 100 µM
TGI (CCRF-CEM leukemia): > 100 µM
TGI (COLO 205 colon): > 100 µM
TGI (DU-145 prostate): > 100 µM
TGI (EKVX NSCLC): > 100 µM
TGI (HCC-2998 colon): > 100 µM
TGI (HCT-116 colon): > 100 µM
TGI (HCT-15 colon): > 100 µM
TGI (HL-60(TB) leukemia): > 100 µM
TGI (HOP-62 NSCLC): > 100 µM
TGI (HOP-92 NSCLC): > 100 µM
TGI (HT29 colon): > 100 µM
TGI (IGROV1 ovarian): > 100 µM
TGI (K-562 leukemia): > 100 µM
TGI (KM12 colon): > 100 µM
TGI (LOX IMVI melanoma): > 100 µM
TGI (M14 melanoma): > 100 µM
TGI (MALME-3M melanoma): > 100 µM
TGI (MCF7 breast): > 100 µM
TGI (MDA-MB-231 breast): > 100 µM
TGI (MDA-MB-435): > 100 µM
TGI (MDA-N): > 100 µM
TGI (MOLT-4 leukemia): > 100 µM
TGI (NCI-H226 lung): > 100 µM
TGI (NCI-H23 lung): > 100 µM
TGI (NCI-H460 lung): > 100 µM
TGI (NCI-H522 lung): > 100 µM
TGI (NCI/ADR-RES ovarian): > 100 µM
TGI (OVCAR-4 ovarian): > 100 µM
TGI (OVCAR-5 ovarian): > 100 µM
TGI (OVCAR-8 ovarian): > 100 µM
TGI (PC-3 prostate): > 100 µM
TGI (RPMI-8226 leukemia): > 100 µM
TGI (RXF 393 renal): > 100 µM
TGI (SF-268 CNS): > 100 µM
TGI (SF-539 CNS): > 100 µM
TGI (SK-MEL-2 melanoma): > 100 µM
TGI (SK-MEL-28 melanoma): > 100 µM
TGI (SK-MEL-5 melanoma): > 100 µM
TGI (SN12C renal): > 100 µM
TGI (SNB-19 CNS): > 100 µM
TGI (SNB-75 CNS): > 100 µM
TGI (SR leukemia): > 100 µM
TGI (SW-620 colon): > 100 µM
TGI (T-47D breast): > 100 µM
TGI (TK-10 renal): > 100 µM
TGI (U251 CNS): > 100 µM
TGI (UACC-257 melanoma): > 100 µM
TGI (UACC-62 melanoma): > 100 µM
TGI (UO-31 renal): > 100 µM
